Read-outs that look alike come from different tables or passages of the source.
Experiments:
[1] = target: T1, p75^NTR receptors (PC12 cells) (Rattus norvegicus, UniProt P07174); assay: Basic screening assay: binding of 125I-BDNF to PC12 cells; conditions: read-out: BDNF Activity % Maximal Binding
T1 construct: endogenous in cells; host or cells: PC12 cells
T1 sequence (P07174 30-425): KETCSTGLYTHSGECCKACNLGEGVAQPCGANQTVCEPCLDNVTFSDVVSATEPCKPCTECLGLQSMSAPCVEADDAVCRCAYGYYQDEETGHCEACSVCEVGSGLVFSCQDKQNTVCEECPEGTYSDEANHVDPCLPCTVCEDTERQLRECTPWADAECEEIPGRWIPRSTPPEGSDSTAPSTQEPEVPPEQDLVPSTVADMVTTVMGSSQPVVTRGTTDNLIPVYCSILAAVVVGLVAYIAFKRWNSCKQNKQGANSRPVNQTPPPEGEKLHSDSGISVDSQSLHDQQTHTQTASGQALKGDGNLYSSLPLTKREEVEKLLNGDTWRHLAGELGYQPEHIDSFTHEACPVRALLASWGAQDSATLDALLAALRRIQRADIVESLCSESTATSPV
T1 sequence (P23560 129-247 partner): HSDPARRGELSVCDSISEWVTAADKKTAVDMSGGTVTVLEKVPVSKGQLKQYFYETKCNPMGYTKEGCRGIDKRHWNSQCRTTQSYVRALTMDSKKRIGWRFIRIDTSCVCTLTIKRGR
Description: (§1) The compounds were screened for effects on binding of ^125I-BDNF or ^125I-NGF to PC12 cells (p75^NTR receptors), and those that inhibited binding were further tested to determine the EC50 for this inhibition.
(§2) PC12 cells were cultured and prepared for binding assays as described in Example 1.
(§3) Lypophilized Peprotech human recombinant BDNF (Cedarlane Laboratories, Toronto, Canada, cat. # PE 450-02-10) was reconstituted under sterile conditions to 3.5 μM in sterile HKR/1%BSA, and either used immediately or stored in aliquots of 20 μl at −80° C. Immediately prior to use, a 15 nM (30×) solution of ^125I-BDNF or ^125I-NGF was prepared in HKR buffer, and was used at 0.5 nM final concentration.
(§4) Test Compounds were dissolved to 10 mM in DMSO, and those that were not initially soluble were warmed to 40-50° C. and vortexed. Those compounds that were still not in solution were reported as such. Compounds were then stored in this form at −20° C. until use. Immediately before experiments, 100 mM compounds were diluted to 10 mM in DMSO (1:10), followed by a further dilution to 1 mM (1:10) with distilled water, and a further dilution to 500 μM (1:1) with HKR.
(§5) Assays to determine maximum binding (Bmax), non-specific binding (NSB), and binding in the presence of each test compound (e.g., x, y) were performed at least in duplicate. In a total volume of 300 μL, 4×10^6 PC12 cells were incubated, rotating for 2 h at 4° C. with the following:
(§6) At the conclusion of the binding reaction, 100 μL aliquots of the reaction mixtures were carefully layered over 200 μL of a 10% glycerol solution in a 0.4 mL tube, and subjected to centrifugation in a microcentrifuge for 2 minutes at half maximum speed. The cell pellets containing the bound ^125I-BDNF or ^125I-NGF were then measured using a gamma counter. The mean values of the replicates were then calculated to determine the value for maximum binding (Bmax) and nonspecific binding (NSB), and binding in the presence of test compound at 50 μM (Bx). Specific binding (SB) was measured by subtracting the NSB from the Bmax.

[2] = tested on: p75^NTR receptors (PC12 cells); assay: Basic screening assay: binding of 125I-NGF to PC12 cells; conditions: test compound 50 μM, 0.5 nM 125I-NGF, PC12 cells, 2 h at 4° C., specific binding as percent of control
Description: as §1, §2
Lyophilized Serotec mouse 2.5S NGF (Cedarlane Laboratories, Toronto, Canada, cat. # PMP 04Z) was reconstituted under sterile conditions to 1 mg/mL (38 μM) in sterile 0.2% acetic acid, and 100 μL or 50 μL aliquots were stored frozen at −80° C.
as §3, §4, §5
as §6, with “Bmax. Specific binding in the presence of the test compound (SBx) was determined by subtracting the NSB from the Bx for each test compound; and each SBx was divided by SB and multiplied by 100 to give the specific binding in the presence of the compound as a percent of control specific binding.” for “Bmax.”

[3] = Table 1, test compound 50 μM, 0.5 nM 125I-BDNF, PC12 cells, 2 h at 4° C., specific binding as percent of control
[4] = Table 4, test compound 50 μM, 0.5 nM 125I-BDNF, PC12 cells, 2 h at 4° C., specific binding as percent of control
[5] = Table 2, test compound 50 μM, 0.5 nM 125I-BDNF, PC12 cells, 2 h at 4° C., specific binding as percent of control

Row | Compound | NGF Activity % Maximal Binding ([2]; Table 1) | activity at 50 µM [1, 4] | NGF Activity % Maximal Binding ([2]; Table 4) | also measured
1 | CCCC(C(=O)O)N1C(=O)C(=Cc2ccc(-c3ccc([N+](=O)[O-])cc3)o2)SC1=S (stereo not shown) [Compound 52, 2-{5-[5-(4-Nitrophenyl)furan-2-ylmethylene]-4-oxo-2-thioxo-thiazolidin-3-yl}-pentanoic acid] | * (50 < *) |  |  | activity at 50 µM [1, 3]: 30 to 40%
2 | COC(=O)c1ccc(-c2ccc(/C=C3\C(=O)NC(=O)N(Cc4ccccc4)C3=O)o2)cc1 [Compound 32, 4-[5-(1-benzyl-2,4,6-trioxo-tetrahydro-pyrimidin-5-ylidenemethyl)furan-2-yl]benzoic acid methyl ester] | * (50 < *) |  |  | activity at 50 µM [1]: 10 to 20%
3 | CSC1=NC(=Cc2ccc(-c3cccc([N+](=O)[O-])c3)o2)C(=O)S1 [Compound 112, 2-Methylsulfanyl-4-[5-(3-nitrophenyl)furan-2-ylmethylene]-4H-thiazol-5-one] |  | > 50% | * (50 < *) | 
4 | Cc1cc(C(=O)O)ccc1-c1ccc(/C=C2\SC(=O)N(C)C2=O)o1 [Compound 76, 3-Methyl-4-[5-(3-methyl-2,4-dioxo-thiazolidin-5-ylidenemethyl)furan-2-yl]benzoic acid] |  |  |  | activity at 50 µM [1, 5]: 0 to 10%; NGF Activity % Maximal Binding ([2]; Table 2): X (40 < X < 50)
5 | Cc1cccc(N2NC(=O)C(=Cc3ccc(-c4ccc(Cl)c(C(=O)O)c4)o3)C2=O)c1 [Compound 134, 2-Chloro-5-[5-(3,5-dioxo-1-m-tolyl-pyrazolidin-4-ylidenemethyl)furan-2-yl]benzoic acid] |  | > 50% | * (50 < *) | 
6 | COc1cc([N+](=O)[O-])ccc1-c1ccc(/C=C2/NC(=O)N(c3cccc(Cl)c3)C2=O)o1 [Compound 137, 3-(3-Chlorophenyl)-5-[5-(2-methoxy-4-nitrophenyl)furan-2-ylmethylene]-imidazolidine-2,4-dione] |  | > 50% | * (50 < *) | 
7 | CN1C(=O)NC(=O)C(=Cc2ccc(-c3ccc([N+](=O)[O-])cc3)o2)C1=O [Compound 39, 1-Methyl-5-[5-(4-nitrophenyl)furan-2-ylmethylene]-pyrimidine-2,4,6-trione] | * (50 < *) |  |  | activity at 50 µM [1]: 20 to 30%
8 | O=C1NC(=O)N(Cc2ccccc2)C(=O)/C1=C/c1ccc(-c2cccc(C(=O)O)c2)o1 [Compound 122, 3-[5-(1-benzyl-2,4,6-trioxo-tetrahydro-pyrimidin-5-ylidenemethyl)furan-2-yl]benzoic acid] |  |  | * (50 < *) | activity at 50 µM [1]: > 50%
9 | CCN1C(=O)/C(=C/c2ccc(-c3ccc([N+](=O)[O-])cc3)o2)NC1=S [Compound 55, 3-Ethyl-5-[5-(4-nitrophenyl)furan-2-ylmethylene]-2-thioxo-imidazolidin-4-one] | * (50 < *) |  |  | activity at 50 µM [1, 3]: 30 to 40%
10 | CCc1ccc(N2NC(=O)/C(=C/c3ccc(-c4ccc(S(N)(=O)=O)cc4)o3)C2=O)cc1 [Compound 104, 4-{5-[1-(4-Ethylphenyl)-3,5-dioxo-pyrazolidin-4-ylidenemethyl]furan-2-yl}benzenesulfonamide] |  | > 50% | * (50 < *) | 
11 | O=C1NC(=O)C(=Cc2ccc(-c3ccc([N+](=O)[O-])cc3)o2)C(=O)N1 [Compound 26, 5-[5-(4-Nitrophenyl)furan-2-ylmethylene]-pyrimidine-2,4,6-trione] | * (50 < *) |  |  | activity at 50 µM [1]: 0 to 10%
12 | Cc1cccc(N2NC(=O)C(=Cc3ccc(-c4ccc(C(=O)O)cc4)o3)C2=O)c1 [Compound 82, 4-[5-(3,5-Dioxo-1-m-tolyl-pyrazolidin-4-ylidenemethyl)furan-2-yl]benzoic acid] |  |  |  | activity at 50 µM [1, 5]: 20 to 30%; NGF Activity % Maximal Binding ([2]; Table 2): X (40 < X < 50)
13 | Cc1ccc(-c2ccc(/C=C3/NC(=O)NC3=O)o2)cc1[N+](=O)[O-] [Compound 114, 5-[5-(4-Methyl-3-nitrophenyl)furan-2-ylmethylene]-imidazolidine-2,4-dione] |  | > 50% | * (50 < *) | 
14 | CCOC(=O)CN1C(=O)S/C(=C/c2ccc(-c3ccc(C(=O)O)cc3C)o2)C1=O [Compound 121, 4-[5-(3-Ethoxycarbonylmethyl-2,4-dioxo-thiazolidin-5-ylidenemethyl)furan-2-yl]-3-methylbenzoic acid] |  | > 50% | * (50 < *) | 
15 | O=C1NC(=S)S/C1=C/c1ccc(-c2ccc([N+](=O)[O-])cc2Br)o1 [Compound 100, 5-[5-(2-Bromo-4-nitrophenyl)furan-2-ylmethylene]-2-thioxo-thiazolidin-4-one] |  | > 50% | * (50 < *) | 
16 | Cc1cc([N+](=O)[O-])ccc1-c1ccc(C=C2NC(=S)NC2=O)o1 [Compound 94, 5-[5-(2-Methyl-4-nitrophenyl)furan-2-ylmethylene]-2-thioxo-imidazolidin-4-one] |  | > 50% | * (50 < *) | 
17 | CCN1C(=O)S/C(=C\c2ccc(-c3ccc([N+](=O)[O-])cc3)o2)C1=O [Compound 110, 3-Ethyl-5-[5-(4-nitrophenyl)furan-2-ylmethylene]-thiazolidine-2,4-dione] |  | > 50% | * (50 < *) | 
18 | O=C1C(=Cc2ccc(-c3cccc([N+](=O)[O-])c3)o2)SC(=S)N1CCS(=O)(=O)O [Compound 143, 2-{5-[5-(3-Nitrophenyl)furan-2-ylmethylene]-4-oxo-2-thioxo-thiazolidin-3-yl}-ethanesulfonic acid] |  | > 50% | * (50 < *) | 
19 | CC1=NN(c2ccc(F)cc2)C(=O)/C1=C\c1ccc(-c2ccc(C(=O)O)cc2)o1 [Compound 49, 4-{5-[1-(4-Fluorophenyl)-3-methyl-5-oxo-1,5-dihydro-pyrazol-4-ylidenemethyl]furan-2-yl}benzoic acid] | * (50 < *) |  |  | activity at 50 µM [1, 3]: 30 to 40%
20 | COC(=O)c1ccc(-c2ccc(C=C3C(=O)NC(=S)NC3=O)o2)cc1 [Compound 19, 4-[5-(4,6-Dioxo-2-thioxo-tetrahydro-pyrimidin-5-ylidenemethyl)furan-2-yl]benzoic acid methyl ester] | * (50 < *) |  |  | activity at 50 µM [1]: 0 to 10%

From patent US20050282840A1, “Methods of modulating neurotrophin-mediated activity” (PainCeptor Pharma Corporation, priority 2004, published 2005)
